In assay [1] the test system is NCI-H1417 cells. In words: In vitro cell proliferation detection (CellTiter-Glo, 7 days). It is filed as cell-based. The following applies: Homo sapiens, 168 h; NCI-H1417 cells, 7 days, CellTiter-Glo; read-out: NCI-H1417 proliferation inhibition IC50.
Assay [2] concerns the target LSD1 (Homo sapiens (Human), UniProt O60341). In words: LSD1 enzyme activity detection (HTRF). It is filed as biochemical. The following applies: HTRF, H3K4me1 substrate; read-out: Inhibition of enzymatic activity of LSD1 IC50. (In general: TR-FRET usually uses a lanthanide donor and a delayed reading to cut background.)

The structures appear in SMILES notation. Counter-ions that a name gives are not always drawn.

`CN(CCCN)c1cc(O)c(-c2ccc(Cl)c(O)c2)c(-c2ccc(C#N)c(F)c2)n1` [Example 61, 4-(6-((3-aminopropyl)(methyl)amino)-3-(4-chloro-3-hydroxyphenyl)-4-hydroxypyridin-2-yl)-2-fluorobenzonitrile]: the results for the IC50 in assay [1] and in assay [2] were 387 nM and 26.4 nM, respectively.
Take `COc1ccc(-c2c(-c3ccc(C#N)c(F)c3)nc(N3CCC(N)CC3)c3nc[nH]c23)cc1F` [Example 270, 4-(4-(4-aminopiperidin-1-yl)-7-(3-fluoro-4-methoxyphenyl)-1H-imidazolo[4,5-c]pyridin-6-yl)-2-fluorobenzonitrile hydrochloride]: the IC50 in assay [1] worked out at 8.64 nM; in assay [2], 10.1 nM.
As to `COc1cc(N2CCN(C)CC2)nc(-c2ccc(C#N)c(F)c2)c1-c1ccc(C)c(O)c1` [Example 100, 2-fluoro-4-(3-(3-hydroxy-4-methylphenyl)-4-methoxy-6-(4-methylpiperazin-1-yl)pyridin-2-yl) benzonitrile], the IC50 in assay [1] was 3.18 nM; in assay [2] it was 8.9 ± 0.3 nM.
Consider `N#Cc1ccc(-c2nc(N3CCC(N)CC3)n3ccnc3c2-c2ccc(Cl)c(O)c2)cc1F` [Example 142, 4-(5-(4-aminopiperidin-1-yl)-8-(4-chloro-3-hydroxyphenyl)imidazolo[1,2-c]pyrimidin-7-yl)-2-fluorobenzonitrile formate], for which the IC50 in assay [1] was 0.214 nM; in assay [2] it was 0.198 nM.
For the compound `Cn1cc2cc(-c3cnc(N4CCC(N)CC4)c(C#N)c3-c3ccc(C#N)c(F)c3)ccc2n1` [Example 84, 2-(4-aminopiperidin-1-yl)-4-(4-cyano-3-fluorophenyl)-5-(2-methyl-2H-indazol-5-yl) nicotinonitrile hydrochloride], the figures for the IC50 in assay [1] and in assay [2] were 4.91 nM and 2.18 nM, respectively.
In the same order, the values of `COc1ccc(-c2c(OC)cc(N3CCC(N)CC3)cc2-c2ccc(C#N)c(F)c2)cc1O` [Example 267, 5′-(4-aminopiperidin-1-yl)-3-fluoro-3″-hydroxy-3′,4″-dimethoxy-[1,1′:2′,1″-terphenyl]-4-nitrile trifluoroacetate] are 3.87 nM and 1 ± 0.4 nM.
For the compound `COc1ccc(-c2c(O)cc(N3CCC(N)CC3)nc2-c2ccc(C#N)c(F)c2)c(F)c1F` [Example 35, 4-(6-(4-aminopiperidin-1-yl)-3-(2,3-difluoro-4-methoxyphenyl)-4-hydroxypyridin-2-yl)-2-fluorobenzonitrile], the IC50 in assay [1] amounted to 31.8 nM; in assay [2] it was 35.7 nM.
In the same order, the values of `COc1ccc(-c2c(O)cc(N3C4CCC3CC(N)C4)nc2-c2ccc(C#N)c(F)c2)cc1F` (stereo not shown) [Example 14, 4-(6-(3-amino-8-azabicyclo[3.2.1]octane-8-yl)-3-(3-fluoro-4-methoxyphenyl)-4-hydroxypyridin-2-yl)-2-fluorobenzonitrile] are 64.9 nM and 13.8 nM.
Regarding `COc1ccc(-c2c(O)cc(N3CCC(N)CC3)nc2-c2ccc(C#N)c(F)c2)cn1` [Example 22, 4-(6-(4-aminopiperidin-1-yl)-4-hydroxy-6′-methoxy-[3,3′-bipyridine]-2-yl)-2-fluorobenzonitrile], the IC50 in assay [1] stood at 34.9 nM; in assay [2] it was 9.03 nM.
Turning to `N#Cc1ccc(-c2nc(N3C4CCC3CC(N)C4)n3ccnc3c2-c2cc3nc[nH]c3cc2F)cc1F` (stereo not shown) [Example 172, 4-(5-(3-amino-8-azabicyclo[3.2.1]octane-8-yl)-8-(6-fluoro-1H-benzo[d]imidazole-5-yl)imidazolo [1,2-c]pyrimidin-7-yl)-2-fluorobenzonitrile], the figures for the IC50 in assay [1] and in assay [2] were 149 nM and 5 ± 4.1 nM, respectively.
Regarding `Cc1ccc(-c2c(-c3ccc(C#N)cc3)cc3c(N4CCC[C@@H](N)C4)nccn23)cc1` [Example 3, (R)-4-(1-(3-aminopiperidin-1-yl)-6-(p-tolyl)pyrrolo[1,2-a]pyrazine-7-yl)benzonitrile], the IC50 in assay [1] turned out to be 34.2 nM; in assay [2], 0.8 ± 0.08 nM.

The values above are taken from patent US20240216357A1 (SICHUAN HUIYU PHARMACEUTICAL CO., LTD., priority 2021, published 2024).
